The target in this experiment is PI3Kβ (Homo sapiens (Human), UniProt P42338). As to the kind of experiment: PI3K isoform TR-FRET enzymatic assay (PI3Kβ). The settings on record: 2× Km ATP, 30 minutes at 25° C. In kind it is biochemical. As for the experimental part: The compounds of formula (I) were characterized for their enzymatic activity against the PI3K isoforms. The activities were measured using a time-resolved fluorescence resonance energy transfer (TR-FRET) assay. TR-FRET monitored the formation of 3,4,5-inositol triphosphate molecule that competed with fluorescently labeled PIP3 for binding to the GRP-1 pleckstrin homology domain protein.
Chain of PI3Kβ (P42338 whole entry, the tested form may be a part, canonical isoform): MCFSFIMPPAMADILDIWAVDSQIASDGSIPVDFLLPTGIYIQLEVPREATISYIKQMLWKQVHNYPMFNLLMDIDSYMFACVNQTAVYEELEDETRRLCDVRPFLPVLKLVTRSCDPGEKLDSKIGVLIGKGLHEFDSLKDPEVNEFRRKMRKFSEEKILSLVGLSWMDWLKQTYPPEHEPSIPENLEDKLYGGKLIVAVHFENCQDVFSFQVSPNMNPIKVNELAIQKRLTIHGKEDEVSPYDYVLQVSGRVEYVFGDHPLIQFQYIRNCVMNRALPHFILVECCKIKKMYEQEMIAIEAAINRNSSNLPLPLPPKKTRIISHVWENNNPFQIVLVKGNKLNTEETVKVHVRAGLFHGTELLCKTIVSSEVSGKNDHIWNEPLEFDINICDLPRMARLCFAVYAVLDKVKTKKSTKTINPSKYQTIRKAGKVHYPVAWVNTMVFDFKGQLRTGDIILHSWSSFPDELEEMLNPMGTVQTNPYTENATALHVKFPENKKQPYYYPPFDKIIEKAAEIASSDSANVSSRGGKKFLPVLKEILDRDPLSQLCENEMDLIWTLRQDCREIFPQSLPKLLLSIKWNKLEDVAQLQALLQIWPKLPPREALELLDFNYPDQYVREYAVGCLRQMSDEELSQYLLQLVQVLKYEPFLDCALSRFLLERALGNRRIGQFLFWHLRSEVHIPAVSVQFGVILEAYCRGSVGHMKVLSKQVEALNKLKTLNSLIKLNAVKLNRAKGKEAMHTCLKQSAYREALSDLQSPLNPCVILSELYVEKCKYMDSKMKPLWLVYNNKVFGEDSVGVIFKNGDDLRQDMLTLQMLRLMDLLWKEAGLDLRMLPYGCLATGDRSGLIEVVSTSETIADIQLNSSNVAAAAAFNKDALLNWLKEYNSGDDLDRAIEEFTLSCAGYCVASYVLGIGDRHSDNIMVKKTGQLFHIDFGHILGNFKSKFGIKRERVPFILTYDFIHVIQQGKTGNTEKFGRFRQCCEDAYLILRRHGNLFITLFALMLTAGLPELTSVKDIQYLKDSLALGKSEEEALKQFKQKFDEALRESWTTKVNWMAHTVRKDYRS
Chain of PI3Kβ (P27986 whole entry partner, the tested form may be a part, canonical isoform): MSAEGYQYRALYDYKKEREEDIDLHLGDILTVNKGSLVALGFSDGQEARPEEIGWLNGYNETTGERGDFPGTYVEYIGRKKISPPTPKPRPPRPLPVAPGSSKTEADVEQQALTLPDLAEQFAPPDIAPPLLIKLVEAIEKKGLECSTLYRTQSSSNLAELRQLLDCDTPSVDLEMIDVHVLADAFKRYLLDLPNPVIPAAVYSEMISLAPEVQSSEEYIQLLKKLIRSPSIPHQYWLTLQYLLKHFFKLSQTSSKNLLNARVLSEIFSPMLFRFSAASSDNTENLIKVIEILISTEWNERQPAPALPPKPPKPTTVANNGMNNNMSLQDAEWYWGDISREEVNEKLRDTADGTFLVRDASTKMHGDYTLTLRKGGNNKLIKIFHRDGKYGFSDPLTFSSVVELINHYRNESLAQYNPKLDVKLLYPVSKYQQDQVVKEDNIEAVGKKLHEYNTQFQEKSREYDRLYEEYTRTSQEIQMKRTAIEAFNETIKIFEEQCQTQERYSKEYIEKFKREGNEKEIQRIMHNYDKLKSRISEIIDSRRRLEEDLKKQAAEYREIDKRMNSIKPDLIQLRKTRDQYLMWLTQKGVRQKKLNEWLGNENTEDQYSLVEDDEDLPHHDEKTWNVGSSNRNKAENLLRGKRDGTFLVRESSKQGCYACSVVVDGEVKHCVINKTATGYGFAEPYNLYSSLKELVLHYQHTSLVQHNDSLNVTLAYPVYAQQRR
Class I PI3K isoforms were expressed and purified as heterodimeric recombinant proteins. All assay reagents and buffers for the TR-FRET assay were purchased from Millipore. […] The compounds were added to the assay solution and incubated for 30 minutes at 25° C. The reactions were terminated with a final concentration of 10 mM EDTA, 10 nM labeled-PIP3, and 35 nM Europium labeled GRP-1 detector protein before reading TR-FRET on an Envision plate reader (Ex: 340 nm; Em: 615/665 nm; 100 μs delay and 500 μs read window).
The results were normalized based on positive (1 μM wortmanin) and negative (DMSO) controls, and the IC50 values for PI3K α, β, δ, and γ were calculated from the fit of the dose-response curves to a four-parameter equation.
(In general: TR-FRET usually uses a lanthanide donor and a delayed reading to cut background.)

Turning to `CCCc1nc2c(-c3nnc[nH]3)cc(N3CCOCC3)cc2n1-c1ccnc2c(Cl)cc(F)cc12` [Example 33, 4-(1-(8-chloro-6-fluoroquinolin-4-yl)-2-propyl-4-(4H-1,2,4-triazol-3-yl)-1H-benzo[d]imidazol-6-yl)morpholine], the IC50 was determined as 10 nM.

Compound `CCc1nc2c(-c3cnc[nH]3)cc(N3CCOCC3)cc2n1-c1ccnc2c(F)cccc12` [Example 209, 4-[2-ethyl-3-(8-fluoroquinolin-4-yl)-7-(1H-imidazol-5-yl)benzimidazol-5-yl]morpholine] had an IC50 of 15 nM.

As to `Cc1nc2c(-c3nnc[nH]3)cc(N3CCOCC3)cc2n1-c1cc(C#N)nc2ccccc12` [Example 67, 4-[2-methyl-6-morpholin-4-yl-4-(4H-1,2,4-triazol-3-yl)benzimidazol-1-yl]quinoline-2-carbonitrile], the IC50 was 99 nM.

`Cc1nnc(-c2cc(N3CCOCC3)cc3c2ncn3-c2cc(-c3cc[nH]n3)nc3ccccc23)[nH]1` [Example 382, 4-(1-(2-(1H-pyrazol-3-yl)quinolin-4-yl)-4-(5-methyl-4H-1,2,4-triazol-3-yl)-1H-benzo[d]imidazol-6-yl)morpholine] yielded an IC50 of 130 nM.

As for `CCCc1nc2c(-c3nnc[nH]3)cc(N3CCOCC3)cc2n1-c1ccnc2c(F)ccc(F)c12` [Example 45, 4-(1-(5,8-difluoroquinolin-4-yl)-2-propyl-4-(4H-1,2,4-triazol-3-yl)-1H-benzo[d]imidazol-6-yl)morpholine], it took 19 nM to reach half-maximal inhibition (IC50).

As to `CCc1nc2c(-c3ncc[nH]3)cc(N3CCOCC3)cc2n1-c1ccnc2c(F)ccc(F)c12` (atropisomer, axis not shown) [Compound 371, 4-(1-(5,8-difluoroquinolin-4-yl)-2-ethyl-4-(1H-imidazol-2-yl)-1H-benzo[d]imidazol-6-yl)morpholine], it took 6800 nM to reach half-maximal inhibition (IC50).

In the case of `CCc1nc2c(-c3nnc[nH]3)cc(N3CCOCC3)cc2n1-c1ccnc2c(F)cccc12` [Example 139, 4-[2-ethyl-3-(8-fluoroquinolin-4-yl)-7-(4H-1,2,4-triazol-3-yl)benzimidazol-5-yl]morpholine], 14 nM corresponded to half-maximal inhibition (IC50).

Compound `CCc1nc2c(-c3nnc[nH]3)cc(N3CCOCC3)cc2n1-c1c(C)cnc2c(C#N)cccc12` (atropisomer, axis not shown) [Compound 365, 4-(2-ethyl-6-morpholino-4-(4H-1,2,4-triazol-3-yl)-1H-benzo[d]imidazol-1-yl)-3-methylquinoline-8-carbonitrile] showed an IC50 of 9100 nM.

On to `CCCc1nc2c(-c3nnc[nH]3)cc(N3CCOCC3)cc2n1-c1ccnc2c(Cl)ccc(F)c12` [Example 48, 4-(1-(8-chloro-5-fluoroquinolin-4-yl)-2-propyl-4-(4H-1,2,4-triazol-3-yl)-1H-benzo[d]imidazol-6-yl)morpholine], for which the half-inhibitory concentration (IC50) was found to be 18 nM. Compared with the last compound, the IC50 is about 510-fold lower.

In the case of `Clc1cccc2c(-n3c(-c4ccccn4)nc4c(-c5nnc[nH]5)cc(N5CCOCC5)cc43)ccnc12` [Example 115, 4-[3-(8-chloroquinolin-4-yl)-2-pyridin-2-yl-7-(4H-1,2,4-triazol-3-yl)benzimidazol-5-yl]morpholine], 14 nM corresponded to half-maximal inhibition (IC50). This IC50 and that of the compound before are within 1.5-fold of each other.

Compound `Cc1nnc(-c2cc(N3CCOCC3)cc3c2nc(C)n3-c2cc(N3CCNCC3)nc3ccccc23)[nH]1` [Example 169, 4-(2-methyl-4-(5-methyl-4H-1,2,4-triazol-3-yl)-1-(2-(piperazin-1-yl)quinolin-4-yl)-1H-benzo[d]imidazol-6-yl)morpholine] registered an IC50 of 16 nM.

`Cc1nnc(-c2cc(N3CCOCC3)cc3c2nc(C(C)C)n3-c2ccnc3c(Cl)cccc23)[nH]1` [Example 14, 4-(1-(8-chloroquinolin-4-yl)-2-isopropyl-4-(5-methyl-4H-1,2,4-triazol-3-yl)-1H-benzo[d]imidazol-6-yl)morpholine] returned a 50% inhibitory concentration (IC50) of 49 nM. Against the preceding compound, the IC50 is about 3.1-fold higher.

In turn, `CCCc1nc2c(-c3ccn[nH]3)cc(N3CCOCC3)cc2n1-c1ccnc2c(F)ccc(F)c12` (atropisomer, axis not shown) [Compound 369, 4-(1-(5,8-difluoroquinolin-4-yl)-2-propyl-4-(1H-pyrazol-5-yl)-1H-benzo[d]imidazol-6-yl)morpholine] came in with an IC50 above 10000 nM.

In the case of `CCc1nc2c(-c3nnc[nH]3)cc(N3CCOCC3)cc2n1-c1c(C)cnc2c(C#N)cccc12` (atropisomer, axis not shown) [Compound 364, 4-(2-ethyl-6-morpholino-4-(4H-1,2,4-triazol-3-yl)-1H-benzo[d]imidazol-1-yl)-3-methylquinoline-8-carbonitrile], inhibition was half-maximal at 25 nM (IC50).

`Cc1nc2c(-c3cnc(Cl)[nH]3)cc(N3CCOCC3)cc2n1-c1ccnc2c(F)ccc(Cl)c12` [Example 309, 4-[3-(5-chloro-8-fluoroquinolin-4-yl)-7-(2-chloro-1H-imidazol-5-yl)-2-methylbenzimidazol-5-yl]morpholine] registered a half-inhibitory concentration (IC50) of 50 nM.

Regarding `Clc1cccc2c(-n3c(C4CCOC4)nc4c(-c5nnc[nH]5)cc(N5CCOCC5)cc43)ccnc12` (centres unmarked) [Example 9, 4-(1-(8-chloroquinolin-4-yl)-2-(tetrahydrofuran-3-yl)-4-(4H-1,2,4-triazol-3-yl)-1H-benzo[d]imidazol-6-yl)morpholine], the IC50 was 33 nM. Compared with the last compound, the IC50 is about 1.5-fold lower.

Take `Cc1nnc(-c2cc(N3CCOCC3)cc3c2nc(C2CCC2)n3-c2ccnc3c(Cl)cccc23)[nH]1` [Example 13, 4-(1-(8-chloroquinolin-4-yl)-2-cyclobutyl-4-(5-methyl-4H-1,2,4-triazol-3-yl)-1H-benzo[d]imidazol-6-yl)morpholine]: half-maximal inhibition (IC50) was put at 45 nM.

With `Cc1nc2c(-c3nnc[nH]3)cc(N3CCOCC3)cc2n1-c1ccnc2c(C(F)F)cccc12` [Example 82, 4-[3-[8-(difluoromethyl)quinolin-4-yl]-2-methyl-7-(4H-1,2,4-triazol-3-yl)benzimidazol-5-yl]morpholine], the IC50 worked out at 9 nM.

In turn, `Fc1cccc2c(-n3c(C4CC4)nc4c(-c5nnc[nH]5)cc(N5CCOCC5)cc43)ccnc12` [Example 144, 4-[2-cyclopropyl-3-(8-fluoroquinolin-4-yl)-7-(4H-1,2,4-triazol-3-yl)benzimidazol-5-yl]morpholine] returned a concentration for half-maximal inhibition (IC50) of 65 nM. Against the preceding compound, the IC50 is about 7.2-fold higher.

`Cc1nnc(-c2cc(N3CCOCC3)cc3c2nc(C)n3-c2ccnc3c(F)ccc(F)c23)[nH]1` (atropisomer, axis not shown) [Compound 351, (R)-4-(1-(5,8-difluoroquinolin-4-yl)-2-methyl-4-(5-methyl-4H-1,2,4-triazol-3-yl)-1H-benzo[d]imidazol-6-yl)morpholine] had a 50% inhibitory concentration (IC50) of 460 nM.

Consider `Cc1nc2c(-c3cnc(Cl)[nH]3)cc(N3CCOCC3)cc2n1-c1ccnc2c(Cl)ccc(F)c12` [Example 288, 4-[3-(8-chloro-5-fluoroquinolin-4-yl)-7-(2-chloro-1H-imidazol-5-yl)-2-methylbenzimidazol-5-yl]morpholine], for which inhibition was half-maximal at 5 nM (IC50).

Compound `CCc1nc2c(-c3ncc[nH]3)cc(N3CCOCC3)cc2n1-c1ccnc2c(F)ccc(F)c12` [Example 387, 4-(1-(5,8-difluoroquinolin-4-yl)-2-ethyl-4-(1H-imidazol-2-yl)-1H-benzo[d]imidazol-6-yl)morpholine] showed an IC50 of 13 nM.

The compound `c1ccc(-c2nc3c(-c4nnc[nH]4)cc(N4CCOCC4)cc3n2-c2ccnc3ccccc23)nc1` [Example 6, 4-(2-(pyridin-2-yl)-1-(quinolin-4-yl)-4-(4H-1,2,4-triazol-3-yl)-1H-benzo[d]imidazol-6-yl)morpholine] registered an IC50 of 31 nM.

A word on the IC50: it is the concentration that gives 50% inhibition. A higher IC50 goes with weaker potency.
